# Test results published in patent publication US10231980B2, “Cortexolone 17alpha-benzoate for use in the treatment of tumours” (COSMO TECHNOLOGIES LTD., priority 2014, dated 2019).
# Like-named read-outs stand apart in the source and are kept apart here.
# Tests used:
# 22Rv1 = assay: In vitro proliferation, larger panel (Example 14); format: cell-based; settings: Homo sapiens, Table III
# Text: Results are depicted in Table III.
# MDA-MB-231 = assay: In vitro proliferation / cytotoxic assay on breast cancer cells (Examples 14, 25); format: cell-based; settings: Homo sapiens
# Procedure: Data shown in Table I were fitted through sigmoidal dose response curves and analyzed using Prizm statistical.
# For the cytotoxic assay, cells were seeded in 96-well flat bottom culture plates in media containing charcoal stripped serum. After 24 hours, test compounds were added to the cells. DMSO was used as the vehicle negative control and RU486 as the positive control. After 72 hour incubation, cells were harvested and lysed to determine cell viability using the Cell Titer Glow assay.
# wild type AR (AR-LBD) = molecular target: T1, wild type AR (AR-LBD) (Rattus norvegicus, UniProt P15207); assay: Polar Screen fluorescence polarization competition assay; format: binding
# T1 construct: purchased Life Technologies
# T1 sequence (P15207 651-882 limits assumed): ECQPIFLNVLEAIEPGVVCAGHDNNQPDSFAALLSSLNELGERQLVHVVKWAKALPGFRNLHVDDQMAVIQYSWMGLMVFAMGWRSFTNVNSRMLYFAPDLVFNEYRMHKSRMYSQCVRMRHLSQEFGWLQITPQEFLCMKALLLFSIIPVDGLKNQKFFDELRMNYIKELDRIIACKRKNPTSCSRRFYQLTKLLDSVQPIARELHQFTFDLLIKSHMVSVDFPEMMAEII
# Procedure: Briefly, the AR is added to a fluorescent androgen ligand (Fluormone™ AL Green) to form an AR-LBD complex. Competitors displace the fluorescent Fluormone™ AL Green ligand from the AR-LBD causing the fluorescent ligand to tumble rapidly during its fluorescence lifetime, resulting in a low polarization value. Non competitors will not displace the fluorescent ligand from the complex, so the polarization value remains high. The shift in polarization value in the presence of test compounds is used to determine relative affinity of test compounds for AR-LBD.
# [1] = molecular target: T2, glucocorticoid receptor (GR) (Homo sapiens, UniProt P04150); assay: GR reporter agonist assay (induction of luminescence); format: cell-based; settings: agonist mode
# T2 construct: endogenous in cells; host or cells: human kidney epithelial cells
# T2 sequence (P04150 1-777): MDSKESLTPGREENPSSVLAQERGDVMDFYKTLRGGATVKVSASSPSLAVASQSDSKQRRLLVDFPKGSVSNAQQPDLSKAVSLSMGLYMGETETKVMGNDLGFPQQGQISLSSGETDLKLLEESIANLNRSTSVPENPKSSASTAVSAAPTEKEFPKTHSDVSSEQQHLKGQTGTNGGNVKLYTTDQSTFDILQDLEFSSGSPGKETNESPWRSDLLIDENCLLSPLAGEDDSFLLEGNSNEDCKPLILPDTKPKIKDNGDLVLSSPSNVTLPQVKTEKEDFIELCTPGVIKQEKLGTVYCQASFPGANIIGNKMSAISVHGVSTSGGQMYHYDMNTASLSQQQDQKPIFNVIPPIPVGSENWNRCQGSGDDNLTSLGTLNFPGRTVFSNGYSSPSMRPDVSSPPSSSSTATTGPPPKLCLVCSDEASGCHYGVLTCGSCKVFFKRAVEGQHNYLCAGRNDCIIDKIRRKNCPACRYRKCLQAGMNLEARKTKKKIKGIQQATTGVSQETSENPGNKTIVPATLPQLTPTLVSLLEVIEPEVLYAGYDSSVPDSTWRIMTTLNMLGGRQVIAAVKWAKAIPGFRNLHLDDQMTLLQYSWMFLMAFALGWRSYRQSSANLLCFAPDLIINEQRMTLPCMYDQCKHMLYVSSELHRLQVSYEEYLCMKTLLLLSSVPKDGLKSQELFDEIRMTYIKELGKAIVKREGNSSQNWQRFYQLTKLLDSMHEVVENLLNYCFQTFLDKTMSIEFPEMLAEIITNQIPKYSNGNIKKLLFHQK
# Procedure: The androgen and glucocorticoid hormones elicit divergent and often opposing effects in cells, tissues, and animals. […] CB-03-06 GR antagonist and agonist activities were tested on an in vitro assay. Briefly, human kidney epithelial cells were transfected with DNA construct containing GR binding sites linked to luminescent based reporter molecule. After 24 hours, cells were treated under antagonist or agonist modes. After an additional 24 hours, luminescence which is proportional to GR agonist transcriptional activity was quantitated.
# Agonist Assay—was based on induction of luminescence by CB-03-06
# The agonist activity of CB-03-06 was compared to a RU486 which is known to not have agonist activity.
# MiaPaca2 = assay: Annexin V / propidium iodide apoptosis flow cytometry; format: cell-based; settings: 24 hours, control 12%
# Procedure: CB-03-06 was evaluated to determine if the mechanism of cytotoxicity on cancer cell lines was mediated by apoptosis and cell cycle arrest. Cancer cell lines were seeded in 6-well flat bottom plates. After 24 hours, test compounds or DMSO vehicle (negative control) were added. After an additional 24 hours, cells were scraped and stained with fluorescein conjugated Annexin V and propidium iodide, and analyzed by flow cytometry.
# [2] = system: caspases 8, 9, 3/7 in LNCaP cells; assay: Caspase 8, 9 and 3/7 activity; format: cell-based; settings: 24 hour incubation, Enzalutamide positive control
# Procedure: After 24 hours, test compounds were added to cells. Gemcitabine (a known pancreatic cancer chemotherapeutic agent) and DMSO were used as positive and negative controls, respectively. There were three incubation time points: 8 hours, 24 hours, and 48 hours. After each time point, cells were lysed in multiplex buffer containing the caspase 3/7 substrate combined with either caspase 8 or caspase 9 reagents, which contain stable luciferase in proprietary buffers. The lysates were transferred to white opaque 96-well plates before measuring luminescence on a Tecan Safire instrument. Parallel plates treated identically were used to determine cell viability. All caspase activities were corrected for the number of viable cells.
# The same assay was repeated using LNCaP prostate cancer cell lines. […] The results are shown in FIG. 12 after 24 hour incubation when the caspase activities peaked.
# [3] = In vitro metabolism in plasma; format: in vitro ADME, rat; settings: 37 C
# Procedure: To obtain some insight on the metabolism of CB-03-06 in human and rat plasma, a specific assay was designed. Briefly, the compound was incubated at different time points in human and rat plasma at 37 C. After incubation, the samples were tested for presence of the intact compound by liquid chromatography.
# [4] = system: LNCaP prostate cancer xenograft; assay: Human prostate cancer xenograft in nude mice, oral dosing; format: in vivo; settings: oral 100 mg/Kg daily 28 days
# Procedure: 3×10^6 LNCaP cells suspended in matrigel were subcutaneously injected (on the right flank) into 6 week old male athymic nude mice. Tumors were measured as described above. Treatment with CB-03-06 and controls compounds was initiated after the tumor had reached 50 mm^3. […] Oral dosing was daily (100 mg/Kg in 200 microL/mouse) for 28 consecutive days. Results were plotted as average change in tumor volume relative to the start of treatment.
# [5] = system: PSA secretion from LNCaP cells; assay: PSA secretion Elisa; format: cell-based; settings: Homo sapiens, 48 h, read-out: inhibition of PSA secretion IC50
# Procedure: (§1) Prostate-specific antigen, or PSA, is a protein produced by cells of the prostate gland. The PSA test measures the level of PSA in a person's blood. The blood level of PSA is often elevated in men with prostate cancer and it used as surrogate marker to test prostate cancer progression in human population. […] LNCaP cells were seeded in 96-well flat bottom culture plates in media containing charcoal stripped serum with or without 10 nM DHT. […] After 48 hours incubation with test compounds, supernatants were harvested and tested with an Elisa assay for PSA and the same cells were lysed for cell viability assessment.
# LNCaP = assay: Cell viability of the cells of the PSA assay; format: cell-based; settings: Homo sapiens, 48 h, read-out: cell viability IC50
# Procedure: as §1
structure (smiles),measurement,setting,value
"C[C@]12CCC(=O)C=C1CC[C@@H]1[C@@H]2CC[C@@]2(C)[C@H]1CC[C@]2(OC(=O)c1ccccc1)C(=O)CO [CB-03-06, cortexolone 17α-benzoate]",IC50,22Rv1,25 µM
same,IC50,"MDA-MB-231; MDA-MB-231, 72 h",46 µM
same,IC50,"MDA-MB-231; MDA-MB-231, read-out: in vitro proliferation IC50",46 µM
same,IC50,wild type AR (AR-LBD),2.6 µM
same,GR agonist activity plateau,[1],45 % of Dex maximum
same,concentration activating the GR to the same extent,[1]; CB-03-06 compared with Dex,14 nM
same,cells in apoptosis (early and late),MiaPaca2,56 % cells
same,Initiator (8 and 9) and Effector (3/7) caspase activities,[2],"induced Initiator (8 and 9,) and Effector (3/7) caspase activities better than Enzalutamide"
same,degradation in rat compared to human plasma,[3],degrades faster in rat compared to human plasma
same,"intact compound, % of initial concentration","[3]; rat plasma, through 8 hours",over 90%
same,"anti-tumor activity, change in tumor volume",[4],strong anti-tumor activity against prostate cancer
same,IC50,[5],4 µM
same,IC50,LNCaP,12 µM
